Structures can show the parent of a compound that is named as a salt.
Tests used:
[1] = tested on: PL-21; experiment: area under dose-response curve (cell viability) (AUC (arbitrary, % viability x log concentration)); higher = less sensitive (more viable); conditions: 4 days
Protocol: (§1)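 14 AML cell lines were plated on extracellular-matrix-coated 384-well plates and exposed to each drug at 8 concentrations (4-5 logs within 1e-12 to 1e-4 M, tailored per drug) in duplicate. Viability was read by CellTiter-Glo after 4 days. The dose-response (averaged over duplicates) was fitted to a 4-parameter sigmoid, and the area under the curve was taken as the sensitivity measure.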

[2] = tested on: SKM1; experiment: as above; conditions: 4 days
Protocol: as §1

[3] = tested on: OCI-AML3; experiment: as above; conditions: 4 days
Protocol: as §1

[4] = tested on: MOLM/16; experiment: as above; conditions: 4 days
Protocol: as §1

[5] = tested on: AML.017 (primary AML patient cells); experiment: area under dose-response curve (cell viability), primary AML patient cells (AUC (arbitrary, % viability x log concentration; ComBat batch-corrected)); higher = less sensitive (more viable); conditions: 4 days; sample type: primary AML patient cells
Method in brief: (§2)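 Before testing, primary AML cells were DNase-thawed, cultured 48 h in IMDM with horse serum, fetal calf serum and low stem cell factor, and enriched for blasts. On extracellular-matrix-coated 384-well plates at 5000 cells/well, they received drugs the next day at eight concentrations within 10^–12–10^–4 M, in duplicate, and CellTiter-Glo viability was recorded after 4 days. The endpoint was area under the fitted four-parameter curve, corrected for batch using ComBat.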

[6] = tested on: AML.076 (primary AML patient cells); experiment: as above; conditions: 4 days; sample type: primary AML patient cells
Method in brief: as §2

[7] = tested on: KASUMI1; experiment: IC50 (cell viability) (log10 M); conditions: 4 days
Protocol: (§3)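 14 AML cell lines were treated with 8 drug concentrations in duplicate on ECM-coated 384-well plates, with CellTiter-Glo viability read after 4 days. IC50 is the concentration where the fitted 4-parameter curve crosses 50% viability. For inactive compounds the maximum tested concentration is used as a placeholder.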

[8] = tested on: PL-21; experiment: IC50 (cell viability) (log10 M); conditions: 4 days
Protocol: as §3

[9] = tested on: SKM1; experiment: IC50 (cell viability) (log10 M); conditions: 4 days
Protocol: as §3

[10] = tested on: HL60; experiment: IC50 (cell viability) (log10 M); conditions: 4 days
Protocol: as §3

[11] = tested on: NB4; experiment: IC50 (cell viability) (log10 M); conditions: 4 days
Protocol: as §3

[12] = tested on: MOLM/13; experiment: IC50 (cell viability) (log10 M); conditions: 4 days
Protocol: as §3

[13] = tested on: U937; experiment: IC50 (cell viability) (log10 M); conditions: 4 days
Protocol: as §3

[14] = tested on: KG1; experiment: IC50 (cell viability) (log10 M); conditions: 4 days
Protocol: as §3

[15] = tested on: OCI-AML3; experiment: IC50 (cell viability) (log10 M); conditions: 4 days
Protocol: as §3

[16] = tested on: EOL-1; experiment: IC50 (cell viability) (log10 M); conditions: 4 days
Protocol: as §3

[17] = tested on: MOLM/16; experiment: IC50 (cell viability) (log10 M); conditions: 4 days
Protocol: as §3

[18] = tested on: MV4.11; experiment: IC50 (cell viability) (log10 M); conditions: 4 days
Protocol: as §3

[19] = tested on: OCI-AML2; experiment: IC50 (cell viability) (log10 M); conditions: 4 days
Protocol: as §3

[20] = tested on: THP-1; experiment: IC50 (cell viability) (log10 M); conditions: 4 days
Protocol: as §3

Structure (SMILES) | area under dose-response curve [1] | area under dose-response curve [2] | area under dose-response curve [3] | area under dose-response curve [4] | area under dose-response curve [5] | area under dose-response curve [6] | IC50 (log10 M) [7] | IC50 (log10 M) [8] | IC50 (log10 M) [9] | IC50 (log10 M) [10] | IC50 (log10 M) [11] | IC50 (log10 M) [12] | IC50 (log10 M) [13] | IC50 (log10 M) [14] | IC50 (log10 M) [15] | IC50 (log10 M) [16] | IC50 (log10 M) [17] | IC50 (log10 M) [18] | IC50 (log10 M) [19] | IC50 (log10 M) [20]
CC(C)C[C@@H](C(=O)N[C@H](C(=O)OC1CCCC1)c1ccccc1)[C@H](O)C(=O)NO [Tosedostat] | 520 | 655 | 650 | 452 | 703 | 767 | > -5 | -5.35 | > -5 | > -5 | -6 | -5.17 | -6.37 | -5.48 | > -5 | -5.46 | -6.4 | -5.23 | > -5 | -5.02
Cc1cc(Nc2cc(N3CCN(C)CC3)nc(Sc3ccc(NC(=O)C4CC4)cc3)n2)n[nH]1 [Tozasertib] | 453 | 421 | 370 | 210 | 622 | 575 | -6.82 | -5.8 | -6.61 | -5.64 | -6.61 | < -8.48 | < -8.48 | -7.15 | -6.91 | < -8.48 | < -8.48 | < -8.48 | -8.4 | -6.93
CC1=C(/C=C/C(C)=C/C=C/C(C)=C/C(=O)O)C(C)(C)CCC1 [Tretinoin] | 523 | 410 | 333 | 574 | 758 | 661 | -5.14 | > -5 | -5.91 | -5.24 | > -5 | -6.43 | -6.27 | > -5 | -7.6 | -8.11 | > -5 | -7.2 | -6.18 | > -5
CCCC(CCC)C(=O)O [Valproic acid] | 640 | 688 | 718 | 682 | 638 | 663 | > -5 | > -5 | > -5 | > -5 | > -5 | > -5 | > -5 | > -5 | > -5 | > -5 | > -5 | > -5 | > -5 | > -5
COc1cc2/c(=N/c3ccc(Br)cc3F)nc[nH]c2cc1OCC1CCN(C)CC1 [Vandetanib] | 636 | 678 | 697 | 669 | 795 | 683 | -5.19 | > -5 | > -5 | > -5 | > -5 | > -5 | > -5 | -5.41 | > -5 | -5.82 | > -5 | -5.38 | > -5 | > -5
Clc1ccc(Nc2nnc(Cc3ccncc3)c3ccccc23)cc1 [Vatalanib] | 614 | 653 | 694 | 673 | 750 | 774 | -5.26 | > -5 | > -5 | > -5 | > -5 | > -5 | > -5 | > -5 | > -5 | -6.19 | > -5 | > -5 | > -5 | > -5
CC[C@]1(O)C[C@@H]2CN(CCc3c([nH]c4ccccc34)[C@@](C(=O)OC)(c3cc4c(cc3OC)N(C)[C@H]3[C@@](O)(C(=O)OC)[C@H](OC(C)=O)[C@]5(CC)C=CCN6CC[C@]43[C@@H]65)C2)C1 [Vinblastine sulfate] | 9.49 | 61.1 | 11.7 | 23.2 | 416 | 328 | < -8.48 | < -8.48 | < -8.48 | < -8.48 | < -8.48 | < -8.48 | < -8.48 | < -8.48 | < -8.48 | < -8.48 | < -8.48 | < -8.48 | < -8.48 | < -8.48
CC[C@]1(O)C[C@H]2CN(CCc3c([nH]c4ccccc34)[C@@](C(=O)OC)(c3cc4c(cc3OC)N(C=O)[C@H]3[C@@](O)(C(=O)OC)[C@H](OC(C)=O)[C@]5(CC)C=CCN6CC[C@]43[C@@H]65)C2)C1 [Vincristine sulfate] | 7.49 | 59.2 | 12.2 | 35.7 | 485 | 378 | < -8.48 | < -8.48 | < -8.48 | < -8.48 | < -8.48 | < -8.48 | < -8.48 | < -8.48 | < -8.48 | < -8.48 | < -8.48 | < -8.48 | < -8.48 | < -8.48
CCC1=C[C@@H]2CN(C1)Cc1c([nH]c3ccccc13)[C@@](C(=O)OC)(c1cc3c(cc1OC)N(C)[C@H]1[C@@](O)(C(=O)OC)[C@H](OC(C)=O)[C@]4(CC)C=CCN5CC[C@]31[C@@H]54)C2 [Vinorelbine tartrate] | 297 | 329 | 301 | 311 | 614 | 514 | -7.98 | -8.06 | -7.84 | -8.33 | < -8.34 | -7.99 | < -8.34 | -7.11 | -8 | < -8.34 | -7.87 | -7.87 | -7.68 | -7.72

Source: the supplement of paper PMC5752671
